# Patent US20260159499A1, “COMPOUND AS FAK INHIBITOR AND USE THEREOF” (WIGEN BIOMEDICINE TECHNOLOGY (SHANGHAI) CO., LTD., priority 2021, published 2026)
# Columns and labels:
# PC3 cells [1] = assay: PC3 cell proliferation, 2D activity detection; format: cell-based, human; details: Homo sapiens, PC-3; PC3, 2D, 72 h, class symbol; read-out: 2D IC50 against PC3 cells
# Experimental: 2D activity detection: 1200 PC3 cells were seeded in a 96-well plate. After overnight adherence culture, the compound serially diluted was added. 72 h after addition, Cell Titer-Lumi (Beyotime C0068XL) was added to measure the ATP content in the cells. The growth of the cells was evaluated, and IC50 of the compounds against cell growth was calculated.
# FAK recombinant protein = FAK recombinant protein (Homo sapiens, UniProt Q05397); assay: Inhibitory activity against FAK enzyme; format: biochemical; details: TK substrate, ATP
# Experimental: The compound serially diluted with DMSO and a FAK recombinant protein were mixed, and the mixture was left to stand at room temperature for 10 min. A biotin-labeled TK substrate (TK) and ATP were then added. […] After the mixture was incubated at room temperature for 1 h, the fluorescence intensity at 615 nm and 665 nm was measured. The ratio of the fluorescence intensity at 665 nm and 615 nm was calculated. The inhibition percentages and IC50 of the compounds were calculated compared to the DMSO control group.
# PC3 cells [2] = assay: PC3 cell proliferation, 3D activity detection; format: cell-based, human; details: Homo sapiens, PC-3, 336 h, PC3, 3D culture, 14 days, read-out: 3D IC50 against PC3 cells
# Experimental: 3D activity detection: PC3 cells were seeded in a 96-well plate at 1200 cells/well, and 3D culture was performed. 14 days after the compound serially diluted was added, the growth of the cells was determined. The inhibition percentage and IC50 of the compound were calculated compared to the DMSO control group.
# Sequence of FAK recombinant protein (Q05397 whole entry, species assumed): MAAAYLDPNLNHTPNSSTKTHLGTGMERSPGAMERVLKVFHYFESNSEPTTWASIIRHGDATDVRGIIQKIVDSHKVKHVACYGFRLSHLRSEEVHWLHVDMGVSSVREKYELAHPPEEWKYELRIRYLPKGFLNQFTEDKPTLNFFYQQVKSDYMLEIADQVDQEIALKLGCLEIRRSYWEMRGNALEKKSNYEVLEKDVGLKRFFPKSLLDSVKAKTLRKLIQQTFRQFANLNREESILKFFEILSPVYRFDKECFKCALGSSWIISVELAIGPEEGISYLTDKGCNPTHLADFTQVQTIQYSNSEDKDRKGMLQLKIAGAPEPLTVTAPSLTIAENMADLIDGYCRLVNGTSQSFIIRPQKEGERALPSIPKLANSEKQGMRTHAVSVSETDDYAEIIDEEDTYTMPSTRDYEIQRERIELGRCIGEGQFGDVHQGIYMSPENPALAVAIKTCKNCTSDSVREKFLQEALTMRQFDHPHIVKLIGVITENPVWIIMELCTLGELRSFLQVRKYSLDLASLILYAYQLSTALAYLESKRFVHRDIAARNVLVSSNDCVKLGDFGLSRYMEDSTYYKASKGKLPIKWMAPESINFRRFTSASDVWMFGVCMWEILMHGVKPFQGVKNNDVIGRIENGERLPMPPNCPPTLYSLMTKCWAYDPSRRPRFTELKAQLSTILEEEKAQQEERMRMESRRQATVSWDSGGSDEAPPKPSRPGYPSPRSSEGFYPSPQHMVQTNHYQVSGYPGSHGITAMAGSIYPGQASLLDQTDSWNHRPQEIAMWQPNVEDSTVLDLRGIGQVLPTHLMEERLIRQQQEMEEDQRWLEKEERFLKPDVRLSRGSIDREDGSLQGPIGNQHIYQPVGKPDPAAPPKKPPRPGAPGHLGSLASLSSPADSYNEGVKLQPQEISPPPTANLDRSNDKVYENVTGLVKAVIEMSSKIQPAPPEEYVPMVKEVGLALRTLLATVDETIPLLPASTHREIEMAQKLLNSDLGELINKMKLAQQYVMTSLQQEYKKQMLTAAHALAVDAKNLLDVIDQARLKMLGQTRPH
Structure (SMILES),IC50 (PC3 cells [1]) [nM],IC50 (FAK recombinant protein) [nM],IC50 (PC3 cells [2]; class symbol) [nM],IC50 (PC3 cells [2]; numeric (mean where marked *)) [nM]
CNC(=O)c1ccccc1Oc1nc(Nc2cc(F)c(C(=O)NC3CCC4(CC3)CCN(C)CC4)cc2OC)ncc1C(F)(F)F [Compound 9],> 2000,10 to 50,5 to 50,
COc1cc(C(=O)NC2CC3(CCN(C)CC3)C2)c(F)cc1Nc1ncc(C(F)(F)F)c(Oc2ccccc2N(C)S(C)(=O)=O)n1 [Compound 10],> 2000,< 10,< 5,
COc1cc(N2CC3(CCN(C4CCC4)CC3)C2)ccc1Nc1ncc(C(F)(F)F)c(Oc2cccc3c2C(=O)N(C)C3)n1 [Compound 105],> 2000,< 10,< 5,
COc1cc(N2CC3(CCN(CC4CC4)CC3)C2)ccc1Nc1ncc(C(F)(F)F)c(Oc2cccc3c2C(=O)N(C)C3)n1 [Compound 106],> 2000,< 10,< 5,
COc1cc(C(=O)NC2CC3(CCN(C)CC3)C2)c(-c2cnn(C)c2)cc1Nc1ncc(C(F)(F)F)c(Oc2cccc3c2C(=O)N(C)C3)n1 [Compound 88],> 2000,10 to 50,5 to 50,
COc1cc(N2CCC3(CCN(C)CC3)CC2)c(F)cc1Nc1ncc(C(F)(F)F)c(Oc2cccc3c2C(=O)N(C)C3)n1 [Compound 93],> 2000,< 10,< 5,
COc1cc(C(=O)NC2CCC3(CCN(C)C3)C2)c(F)cc1Nc1ncc(C(F)(F)F)c(Oc2cccc3c2C(=O)N(C)C3)n1 (stereo not drawn) [Compound 27],> 2000,< 10,5 to 50,
COc1cc(C(=O)NC2CCC3(CC2)CN(C)C3)c(Cl)cc1Nc1ncc(C(F)(F)F)c(Oc2cccc3c2C(=O)N(C)C3)n1 [Compound 44],> 2000,< 10,5 to 50,
COc1cc(C(=O)NC2CCn3ccnc3C2)c(F)cc1Nc1ncc(C(F)(F)F)c(Oc2cccc3c2C(=O)N(C)C3)n1 (stereo not drawn) [Compound 32],> 2000,< 10,5 to 50,
COc1cc(N2CC3(CCN(C)CC3)C2)ccc1Nc1ncc(F)c(Oc2cccc3c2C(=O)N(C)C3)n1 [Compound 115],> 2000,< 10,,67
COc1cc(C(=O)N2CCC23CCN(C)CC3)c(F)cc1Nc1ncc(C(F)(F)F)c(Oc2cccc3c2C(=O)N(C)C3)n1 [Compound 38],> 2000,10 to 50,5 to 50,
COc1cc(C(=O)NC2CC3(CCN(C)CC3)C2)c(Cl)cc1Nc1ncc(C(F)(F)F)c(Cc2cccc3c2C(=O)N(C)C3)n1 [Compound 55],> 2000,< 10,< 5,
COc1cc(C(=O)NC2CCC3(CCN(C)C3)C2)c(F)cc1Nc1ncc(C(F)(F)F)c(Oc2ccccc2N(C)S(C)(=O)=O)n1 (stereo not drawn) [Compound 13],> 2000,< 10,5 to 50,
CCN1CCC2(CC1)CC(NC(=O)c1cc(OC)c(Nc3ncc(C(F)(F)F)c(Oc4cccc5c4C(=O)N(C)C5)n3)cc1F)C2 [Compound 42],> 2000,< 10,< 5,
COc1cc(N2CCC3(CC2)CN(C)C3)ccc1Nc1ncc(Br)c(Oc2cccc3c2C(=O)N(C)C3)n1 [Compound 117],> 2000,< 10,< 5,
"CNC(=O)c1ccccc1Oc1nc(Nc2cc(F)c(C(=O)NC3CC4(CCN(C)CC4)C3)cc2OC)ncc1C(F)(F)F [Compound 1, 2-fluoro-5-methoxy-N-(7-methyl-7-azaspiro[3.5]nonan-2-yl)-4-((4-(2-(methylcarbamoyl)phenoxy)-5-(trifluoromethyl)pyrimidin-2-yl)amino)benzamide]",> 2000,< 10,5 to 50,
COc1cc(N2CC3(CCN(C)CC3)OC2=O)c(F)cc1Nc1ncc(C(F)(F)F)c(Oc2cccc3c2C(=O)N(C)C3)n1 [Compound 63],> 2000,10 to 50,5 to 50,
"[2H]C([2H])([2H])N1CCC2(CC1)CN(c1ccc(Nc3ncc(C(F)(F)F)c(Oc4cccc5c4C(=O)N(C)C5)n3)c(OC)c1)C2 [Compound 109, 7-((2-((2-methoxy-4-(7-(methyl-d3)-2,7-diazaspiro[3.5]non-2-yl)phenyl)amino)-5-(trifluoromethyl)pyrimidin-4-yl)oxy)-2-methylisoindolin-1-one]",> 2000,< 10,< 5,
COc1cc(C(=O)NC2CCC3(CC2)CN(C)C3)ccc1Nc1ncc(C(F)(F)F)c(Oc2cccc3c2C(=O)N(C)C3C)n1 (stereo not drawn) [Compound 73],> 2000,< 10,5 to 50,

Structure (SMILES),IC50 (PC3 cells [1]) [nM],IC50 (FAK recombinant protein) [nM],IC50 (PC3 cells [2]; class symbol) [nM],IC50 (PC3 cells [2]; numeric (mean where marked *)) [nM]
COc1cc(C(=O)NC2CC3(CCNCC3)C2)c(F)cc1Nc1ncc(C(F)(F)F)c(Oc2cccc3c2C(=O)N(C)C3)n1 [Compound 41],> 2000,10 to 50,5 to 50,
"COc1cc(C(=O)NC2CC3(CCN(C)CC3)C2)c(F)cc1Nc1ncc(C(F)(F)F)c(Cc2cccc3c2C(=O)N(C)C3C)n1 (stereo not drawn) [Compound 74, 4-((4-((1,2-dimethyl-3-oxoisoindol-4-yl)methyl)-5-(trifluoromethyl)pyrimidin-2-yl)amino)-2-fluoro-5-methoxy-N-(7-methyl-7-azaspiro[3.5]nonan-2-yl)benzamide]",> 2000,< 10,5 to 50,
"CCc1cc(C(=O)NC2CC3(CCN(C)CC3)C2)c(F)cc1Nc1ncc(C(F)(F)F)c(Oc2cccc3c2C(=O)N(C)C3)n1 [Compound 85, 2-fluoro-4-((4-((2-methyl-3-oxoisoindol-4-yl)oxy)-5-(trifluoromethyl)pyrimidin-2-yl)amino)-N-(7-methyl-7-azaspiro[3.5]nonan-2-yl)-5-ethylbenzamide]",> 2000,10 to 50,5 to 50,
CNC(=O)c1ccccc1Oc1nc(Nc2cc(F)c(C(=O)NC3CCC4(CC3)CN(C)C4)cc2OC)ncc1C(F)(F)F [Compound 2],> 2000,< 10,5 to 50,
COc1cc(C(=O)NC2CC3(CCN(C)CC3)C2)c(F)cc1Nc1ncc(C(F)(F)F)c(Oc2cccc3c2C(=O)N(C)C3(C)C)n1 [Compound 76],> 2000,< 10,5 to 50,
"COc1cc(N2CCC3(CCN(C)CC3)C2=O)c(F)cc1Nc1ncc(C(F)(F)F)c(Oc2cccc3c2C(=O)N(C)C3)n1 [Compound 61, 2-(2-fluoro-5-methoxy-4-((4-((2-methyl-3-oxoisoindol-4-yl)oxy)-5-(trifluoromethyl)pyrimidin-2-yl)amino)phenyl)-8-methyl-2,8-diazaspiro[4.5]decan-1-one]",> 2000,< 10,5 to 50,
COc1cc(C(=O)NC2COC3(CCN(C)CC3)C2)c(F)cc1Nc1ncc(C(F)(F)F)c(Oc2cccc3c2C(=O)N(C)C3)n1 (stereo not drawn) [Compound 23],> 2000,< 10,,3.71
COc1cc(C(=O)NC2CC3(CCN(C)CC3)C2)ccc1Nc1ncc(C(F)(F)F)c(Oc2cccc3c2C(=O)N(C)C3(C)C)n1 [Compound 78],> 2000,< 10,5 to 50,
COc1cc(C(=O)NC2CCC3(CC2)CN(C)C3)c(Cl)cc1Nc1ncc(C(F)(F)F)c(Cc2cccc3c2C(=O)N(C)C3)n1 [Compound 56],> 2000,< 10,5 to 50,
COc1cc(C(=O)NC2CCC3(CC2)CN(C)C3)c(F)cc1Nc1ncc(C(F)(F)F)c(Oc2ccccc2N(C)S(C)(=O)=O)n1 [Compound 17],> 2000,< 10,5 to 50,
COc1cc(C(=O)NC2COC3(CCN(C)C3)C2)c(F)cc1Nc1ncc(C(F)(F)F)c(Oc2ccccc2N(C)S(C)(=O)=O)n1 (stereo not drawn) [Compound 15],> 2000,< 10,< 5,
COc1cc(C(=O)NC2CC3(CCN(C)CC3)C2)ccc1Nc1ncc(C(F)(F)F)c(Oc2cccc3c2C(=O)N(C)C3C)n1 (stereo not drawn) [Compound 72],> 2000,< 10,< 5,
COc1cc(C(=O)NC2CCC3(CC2)CN(C)C3)ccc1Nc1ncc(C(F)(F)F)c(Cc2cccc3c2C(=O)N(C)C3)n1 [Compound 58],> 2000,< 10,5 to 50,
COc1cc(C(=O)N2CCC3(CCN(C)CC3)CC2)c(F)cc1Nc1ncc(C(F)(F)F)c(Oc2cccc3c2C(=O)N(C)C3)n1 [Compound 35],> 2000,> 50,> 50,
[2H]C([2H])([2H])N1CCC2(CC1)CC(NC(=O)c1cc(OC)c(Nc3ncc(C(F)(F)F)c(Oc4cccc5c4C(=O)N(C)C5)n3)cc1F)C2 [Compound 47],> 2000,< 10,< 5,
COc1cc(C(=O)NC2CCC3(CC2)CN(C)C3)ccc1Nc1ncc(C(F)(F)F)c(Oc2cccc3c2C(=O)N(C)C3)n1 [Compound 46],> 2000,< 10,5 to 50,
COc1cc(N2CCC3(CCN(C)C3)CC2)ccc1Nc1ncc(C(F)(F)F)c(Oc2cccc3c2C(=O)N(C)C3)n1 [Compound 95],> 2000,< 10,< 5,
CNC(=O)c1ccccc1Oc1nc(Nc2cc(F)c(C(=O)NC3CC4(CCN(C)C4)CO3)cc2OC)ncc1C(F)(F)F (stereo not drawn) [Compound 5],> 2000,< 10,5 to 50,
